Results: publication PMC4349960, “[^18F]FE@SUPPY: a suitable PET tracer for the adenosine A3 receptor? An in vivo study in rodents” (European Journal of Nuclear Medicine and Molecular Imaging, 2015)
Several values for one entry are separate records, joined by “and”; a condition that tells them apart may be missing. Equal values may be shown once.

Columns and labels:
P-gp = assay: Small-animal PET in rats: efflux (P-gp) inhibition; type: in vivo
Excerpt: A microPET Focus220 scanner (Siemens, Medical Solutions) was used for the experiments. […] The resolution of the reconstructed images (filtered back projection) was 1.3 mm (full-width at half-maximum) in the central field of view and remained under 2 mm within the central 5 cm diameter field of view [15]. For PET imaging two groups of animals (rats and xenografted mice) were investigated. Rats were divided into four groups.
Anaesthetized animals were positioned in the imaging chamber of the microPET scanner, which was kept at 38 °C throughout the experiment. […]
For all PET scans (rats and xenografted mice), list mode data were acquired with an energy window of 350 – 750 keV (rats) or 250 – 750 keV (mice) and a 6-ns timing window. Before each PET scan, a transmission scan using a ^57Co point source was recorded over 10 min. […] A calibration factor for converting units of microPET images into absolute radioactivity concentration units was first generated by imaging a phantom filled with a known concentration of [^18F]FDG.
Rat brains were manually outlined on multiple planes of the PET summation images using the image analysis software PMOD 3.1 (Pmod Ltd, Zürich, Switzerland) or Amide [18]. […] To facilitate comparison of TACs of different animals, radioactivity concentrations were normalized to dose and weight and expressed as standardized uptake value (SUV, %ID/cm^3 or %ID/g). […]

[1] = Ex vivo stability/metabolism in rat plasma and brain after pretreatment; set-up: species or system rats; settings: for Brain to blood uptake ratio / %ID/g at 60 min, Blood (plasma) / %ID/g at 60 min, Brain / Unchanged [^18F]FE@SUPPY at 60 min, Blood (plasma) / Unchanged [^18F]FE@SUPPY at 60 min, Brain: rats
Experimental: To determine the influence of the four treatments (vehicle, MRS1523, FE@SUPPY, TQD) on uptake of [^18F]FE@SUPPY, stability was assessed in plasma and brain 60 min after tracer injection. Final blood samples (3 mL) were collected in heparin-buffered tubes, rat brains were washed with ice-cold water and homogenized in 0.9 % aqueous NaCl solution (1 mL) using an IKA T10 basic Ultra-turrax (IKA Laboratory Equipment, Staufen, Germany). […] Sample clean-up was performed by vortexing plasma with the equivalent amount of methanol/acetonitrile (9:1) for 1 min and by subsequent ultracentrifugation (10,000 rpm, 5 min) to remove precipitated proteins. The supernatants obtained were analysed by radio-HPLC (Agilent, Boeblingen, Germany) equipped with a series 1100 autosampler, a series 1200 quaternary pump, a series 1200 diode array detector and a lead-shielded BGO radiodetector. A Chromolith® Performance RP-18e (100 × 4.6 mm, 5 μm) column with a Chromolith® Performance RP-18e (4 x4 mm, 5 μm) precolumn was eluted at a flow rate of 2 mL/min using a mobile phase consisting of 60 % acetonitrile and 40 % water/acetic acid 97.5:2.5 and 32 mM ammonium acetate, pH 3.5. UV detection was performed at a wavelength of 254 nm. The retention time of [^18F]FE@SUPPY was 4.6 – 5.9 min (UV detection and radiodetection).

[2] = In vitro plasma stability, rat plasma; type: in vitro ADME
Experimental: Experiments were conducted following a standard protocol. Briefly, [^18F]FE@SUPPY was added to lithium-heparinized human or rat plasma and after predetermined times (0, 60 and 120 min), the incubation mixture was eluted through a preconditioned SPE cartridge. The washed and newly eluted eluate solutions were injected into the radio-HPLC system (HPLC system as described in the section Ex vivo stability). The stationary phase was an analytical HPLC column LiChrospher LICHROCART® RP-18e (5 μm), 125 × 4 mm precolumn, and the mobile phase consisted of sodium citrate tribasic dehydrate (buffered at 0.034 M, pH 2.5)/acetonitrile 32:68 at a flow rate of 2 mL/min. Samples were incubated with a Thermomixer Compact from Eppendorf (Vienna, Austria) and centrifuged with a Universal 30 RF centrifuge from Hettich (Tuttlingen, Germany).

[3] = set-up: method as in PMID 18158944; settings: cited from earlier work
A3R = test system: A3R; set-up: method as in PMID 20447552; settings: cited from earlier work
[4] = set-up: method as in PMID 20447552; settings: rats, 30 min after injection; cited from earlier work
[5] = pretreatment unlabelled FE@SUPPY

- peak brain activity (P-gp; TQD-treated group (15 mg/kg, 60 min before tracer)): 1.53 ± 0.01 SUV
- peak brain activity (P-gp; untreated group): 1.56 ± 0.22 SUV
- Ex vivo metabolites in rats (where found) ([1]; 60 min after tracer injection): Blood and brain
- Brain to blood uptake ratio ([1]; baseline): 5.2
- %ID/g at 60 min, Brain ([1]; pretreatment DMSO): 0.1132 ± 0.0002 %ID/g
- Unchanged [^18F]FE@SUPPY at 60 min, Blood (plasma) ([1]; pretreatment DMSO): 25.8 ± 5.3% and 25.81 ± 5.3%
- Unchanged [^18F]FE@SUPPY at 60 min, Brain ([1]; pretreatment DMSO): 43.7 ± 9.5%
- Brain to blood uptake ratio ([1]; pretreatment FE@SUPPY): 7.9
- %ID/g at 60 min, Blood (plasma) ([1]; pretreatment MRS1523): 0.0145 ± 0.002 %ID/g
- %ID/g at 60 min, Brain ([1]; pretreatment MRS1523): 0.0918 ± 0.0001 %ID/g
- Unchanged [^18F]FE@SUPPY at 60 min, Blood (plasma) ([1]; pretreatment MRS1523): 26.5 ± 1.4% and 26.54 ± 1.4%
- Unchanged [^18F]FE@SUPPY at 60 min, Brain ([1]; pretreatment MRS1523): 37.8 ± 4.3% and 37.75 ± 4.3%
- %ID/g at 60 min, Blood (plasma) ([1]; pretreatment TQD): 0.0214 ± 0.004 %ID/g
- %ID/g at 60 min, Brain ([1]; pretreatment TQD): 0.1507 ± 0.0005 %ID/g
- Unchanged [^18F]FE@SUPPY at 60 min, Blood (plasma) ([1]; pretreatment TQD): 39.9 ± 4.7% and 39.87 ± 4.7%
- Unchanged [^18F]FE@SUPPY at 60 min, Brain ([1]; pretreatment TQD): 55.2 ± 7.0% and 55.21 ± 7.0%
- %ID/g at 60 min, Blood (plasma) [1, 5]: 0.0160 ± 0.002 %ID/g
- %ID/g at 60 min, Brain [1, 5]: 0.1273 ± 0.0000 %ID/g
- Unchanged [^18F]FE@SUPPY at 60 min, Blood (plasma) [1, 5]: 32.4 ± 5.6%
- Unchanged [^18F]FE@SUPPY at 60 min, Brain [1, 5]: 49.6 ± 9.4% and 49.64 ± 9.4%
- radioactivity from metabolites in rat plasma ([2]; 60 min): 18.7 ± 3%
- radioactivity from metabolites in rat plasma ([2]; 120 min): 35.0 ± 4%
- radioactive metabolites in rat plasma over the observation period ([2]; observation period of 120 min): 19 – 35%
Compound: CCSC(=O)c1c(CC)nc(-c2ccccc2)c(C(=O)OCC[18F])c1CC [[^18F]FE@SUPPY, 5-(2-[^18F]fluoroethyl)-2,4-diethyl-3-(ethylsulfanylcarbonyl)-6-phenylpyridine-5-carboxylate]
- %ID/g at 60 min, Blood (plasma) ([1]; pretreatment DMSO): 0.022 ± 0.003 %ID/g and 0.0216 ± 0.003 %ID/g
- Biodistribution in rats [3]: Followed mainly A3 pattern (except testes) [3]
- Bone uptake in rats [3]: None [3]
- Brain to blood uptake ratio in biodistribution experiments ([3]; rats): up to 5.4
- brain-to-blood ratios over time ([3]; rats): increase over time
- Autoradiography in humans and rats (A3R): High selectivity; FE@SUPPLY comparable with MRS1523 [12]
- metabolites in brain [4]: no metabolites
- parent compound left in plasma [4]: 30%
